Key:
Type in all cases: in vivo
[1] = tested on: rice leafhopper species Nephoteftix cincticeps; test: Method D: Nephotettix cinciceps Screen; settings: concentration of 500 ppm or less; rice plants dipped, L3 larvae, after 6 days at 25° C.
Protocol: Method D: Nephotettix cinciceps Screen
The leaves of 12 rice plants having a stem length of 8 cm were dipped for 5 seconds into an aqueous solution of the formulated preparation to be examined. After the solution had run off, the rice plants treated in this manner were placed in a Petri dish and populated with about 20 larvae (L3 stage) of the rice leafhopper species Nephoteftix cincticeps. The Petri dish was closed and then stored in a climate chamber (16 hours of light/day, 25° C., 40-60% relative atmospheric humidity). After 6 days storage, the mortality among the leafhopper larvae was determined.

[2] = tested on: tick larvae (Rhipicephalus sanguineus); test: Method E: Rhipicephalus sanguineus Screen; settings: concentration of 500 ppm or less, treated filter paper, after 24 hours at 25° C.
Protocol: Method E: Rhipicephalus sanguineus Screen A solution of the formulated preparation to be examined was dropped onto filter paper. After solvent evaporation the filter paper was infested with 20-30 tick larvae (Rhipicephalus sanguineus). After 24 hours storage at 25° C. the efficacy of the preparation was determined.

[3] = tested on: black bean aphids (Aphis fabae); test: Method B: Aphis fabae Screen; settings: concentration of 500 ppm or less; added to water of field bean (Vicia faba) plants, effect on aphids after 3 and 6 days at 25° C.
Protocol: Method B: Aphis fabae Screen Germinated field bean seeds (Vicia faba) with roots were transferred into bottles filled with tap water and an aqueous solution of the formulated preparation to be examined (4 ml) was added. The plants were then infested with approximately 100 black bean aphids (Aphis fabae) and stored in a controlled-environment cabinet at 25° C. After 3 and 6 days storage, the effect of the preparation on the aphids was determined.

CC1=NN(c2c(Cl)cc(C(F)(F)F)cc2Cl)C(=O)C12SC1C=CC2C1 (stereo not drawn) [Compound 8, [1-(2,6-dichloro-4-trifluoromethylphenyl)-3-methylpyrazolin-5-one]-4-spiro-3′-(2′-thiabicyclo[2.2.1]hept-5′-ene)]
control (mortality among the leafhopper larvae) [1]: at least 50%

CC1=C(C)CC2(SC1)C(=O)N(c1c(Cl)cc(C(F)(F)F)cc1Cl)N=C2C#N (stereo not drawn) [Compound 9, [1-(2,6-dichloro-4-trifluoromethylphenyl)-3-cyanopyrazolin-5-one]-4-spiro-2′-(4′,5′-dimethyl-2′H-3′,6′-dihydrothiane)]
control (efficacy) [2]: at least 50%

CC1=NN(c2c(Cl)cc(C(F)(F)F)cc2Cl)C(=O)C12CC=C(c1ccccc1)C[S+]2[O-] (stereo not drawn) [Compound 12, [1-(2,6-dichloro-4-trifluoromethylphenyl)-3-methylpyrazolin-5-one]-4-spiro-2′-(5′-phenyl-1′-oxo-2′H-3′,6′-dihydrothiane)]
control [3]: at least 50%

Source: patent US20030149028A1, “Pesticidal compositions” (priority 2001, published 2003)
